Experimental data published in PubChem BioAssay (NCI).
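Compound exposure: 48 hours, 5 concentrations, 96-well plates. TGI: total growth inhibition.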

Columns and labels:
Assay in all cases: NCI anticancer screen, dose series, 48 h
IGROV1 ovarian = test system: IGROV1 ovarian
LOX IMVI melanoma = test system: LOX IMVI melanoma
EKVX NSCLC = test system: EKVX NSCLC
COLO 205 colon = test system: COLO 205 colon
NCI-H23 lung = test system: NCI-H23 lung
DU-145 prostate = test system: DU-145 prostate
A549 NSCLC = test system: A549 NSCLC
U251 CNS = test system: U251 CNS
MCF7 breast = test system: MCF7 breast
SN12C renal = test system: SN12C renal
CCRF-CEM leukemia = test system: CCRF-CEM leukemia
CAKI-1 renal = test system: CAKI-1 renal
HCC-2998 colon = test system: HCC-2998 colon
HCT-15 colon = test system: HCT-15 colon
MDA-MB-231 breast = test system: MDA-MB-231 breast
786-0 renal = test system: 786-0 renal
K-562 leukemia = test system: K-562 leukemia
OVCAR-3 ovarian = test system: OVCAR-3 ovarian
RPMI-8226 leukemia = test system: RPMI-8226 leukemia
SR leukemia = test system: SR leukemia

SMILES | TGI (IGROV1 ovarian) [µM] | TGI (LOX IMVI melanoma) [µM] | TGI (EKVX NSCLC) [µM] | TGI (COLO 205 colon) [µM] | TGI (NCI-H23 lung) [µM] | TGI (DU-145 prostate) [µM] | TGI (A549 NSCLC) [µM] | TGI (U251 CNS) [µM] | TGI (MCF7 breast) [µM] | TGI (SN12C renal) [µM] | TGI (CCRF-CEM leukemia) [µM] | TGI (CAKI-1 renal) [µM] | TGI (HCC-2998 colon) [µM] | TGI (HCT-15 colon) [µM] | TGI (MDA-MB-231 breast) [µM] | TGI (786-0 renal) [µM] | TGI (K-562 leukemia) [µM] | TGI (OVCAR-3 ovarian) [µM] | TGI (RPMI-8226 leukemia) [µM] | TGI (SR leukemia) [µM]
COc1ccc(-c2nc(SCC(=O)N/N=C/c3ccc(N(C)C)cc3)[nH]c2-c2ccc(OC)cc2)cc1 | > 100 | > 100 | > 100 | 24.5 | > 100 | > 100 | > 100 | > 100 | > 100 | > 100 | > 100 | > 100 | > 100 | > 100 | > 100 | > 100 | > 100 | > 100 | – | –
CCOC(=O)c1cn2c(nc1=O)N[C@H]1CCCC[C@@H]12 | > 100 | > 100 | > 100 | > 100 | > 100 | > 100 | > 100 | > 100 | > 100 | > 100 | > 100 | > 100 | > 100 | > 100 | > 100 | > 100 | > 100 | > 100 | > 100 | –
COc1ccc(C2=N/C(=C\c3ccccc3)C(=O)O2)cc1 | > 100 | – | > 100 | – | – | – | > 100 | > 100 | > 100 | – | > 100 | – | > 100 | > 100 | – | – | > 100 | > 100 | > 100 | 57.5
CC(=O)Nc1nc(C#N)[nH]c1C#N | > 100 | > 100 | > 100 | > 100 | > 100 | > 100 | > 100 | > 100 | > 100 | > 100 | > 100 | > 100 | > 100 | > 100 | > 100 | > 100 | > 100 | > 100 | > 100 | –
CCN(CCCN(CC)C(=O)Nc1c(C)cccc1C)C(=O)Nc1c(C)cccc1C | > 100 | > 100 | > 100 | > 100 | > 100 | > 100 | > 100 | > 100 | > 100 | > 100 | – | > 100 | > 100 | > 100 | > 100 | > 100 | > 100 | – | > 100 | –
